The results in this text go back to patent publication US8017629B2, “Compounds and uses thereof in modulating amyloid β” (Neurogenetic Pharmaceuticals, Inc., priority 2003, dated 2011).

pEC50: −log10 of the molar value.

The experiment relates to Aβ42 levels in the extracellular medium. Put plainly: FRET (HTRF) assay, Aβ42 level of the extracellular medium of SH-SY5Y-APP cells. Format: cell-based. Conditions: Homo sapiens, concentration at which reduction of Aβ42 level was half of the maximum reduction, read-out: Ab42 Potency. As to the method:
Compounds were evaluated for activity in modulating Aβ42 and Aβ40 levels in the extracellular medium using a homogeneous time-resolved fluorescence (HTRF) assay as follows.
For the HTRF assay, either 5 or 10 μl of supernatant from treated cells was added to 10 or 15 μl of labeled antibody pairs, for a total volume of 20 μl, and incubated for 20-24 hours at 4° C. The labeled antibody pairs were either 8000 pg B436-XL665 and 400 pg B113 Europium, for assessing Aβ40 levels, or 8000 pg B436-XL665 and 400 pg A387 Europium, for assessing Aβ42 levels, diluted in 50 mM NaPO4, 0.2% BSA, 0.5M KF, pH 7. The fluorescence was read on a BMG Rubystar at 620 nm and 665 nm.
Consider `CCOc1cc(C)c(Nc2nc(-c3ccc(-n4ccnc4)nc3)cs2)cc1C` [Compound 318], for which the pEC50 is over 6.70.

On to `FC(F)(F)c1cc(NC2CCCC2)ccc1Nc1nc(-c2ccc(-n3ccnc3)cc2)cs1` [Compound 220], for which the pEC50 was 4.52 to 5.00.

For the compound `Cc1ccc(-n2cccc2)cc1Nc1nc(-c2ccc(N3CCN(C)CC3)cc2)cs1` [Compound 323], the pEC50 is 5.30 to 5.96.

For the compound `Cc1ccc(N2CCSCC2)cc1Nc1nc(-c2ccc(-n3ccnc3)cc2)cs1` [Compound 254], the pEC50 is 6.00 to 6.70.

With `CCN(CC)c1ccc(Nc2nc(-c3ccc(-n4cnc(-c5ccccc5)c4)cc3)cs2)c(C)c1` [Compound 147], the pEC50 was 5.30 to 5.96.

In the case of `CCN(CC)c1ccc(Nc2nc(-c3ccc(-n4cnc(C)c4)cc3C(F)(F)F)c(C)s2)c(C)c1` [Compound 205], the pEC50 was 5.30 to 5.96.

Regarding `c1cc2c(cc1Nc1nc(-c3ccc(N4CCN(CC5CC5)CC4)cc3)cs1)OCO2` [Compound 164], the pEC50 was 5.00 to 5.29.

With `Cc1cn(-c2ccc(-c3nc(Nc4cc(Cl)c(Cl)cc4Cl)sc3C)cc2)cn1` [Compound 245], the pEC50 is 5.30 to 5.96.

For the compound `CCN(CC)c1ccc(C)c(Nc2nc(-c3ccc(-c4ccoc4)cc3)cs2)c1` [Compound 311], the pEC50 was 5.30 to 5.96.

Turning to `c1cc(Nc2nc(-c3ccncc3)cs2)c2cn[nH]c2c1` [Compound 170], the pEC50 was 5.30 to 5.96.

Regarding `CCc1ccc(Nc2nc(-c3ccc(N4CCN(C)CC4)cc3)cs2)cc1` [Compound 132], the pEC50 was 4.52 to 5.00.

With `COc1cc(C)c(Nc2nc(-c3ccc(-n4ccnc4)nc3)cs2)cc1C(C)C` [Compound 319], the pEC50 was over 6.70.

`Cc1cnn(-c2ccc(-c3nc(Nc4c(Cl)cc(Cl)cc4Cl)sc3C)cc2)c1` [Compound 246]: the pEC50 was 5.30 to 5.96.

For `CCN(CCO)c1ccc(Nc2nc(-c3ccc(-n4cnc(C)c4)cc3)cs2)c(C)c1` [Compound 204], the pEC50 was 6.00 to 6.70.

For `Cc1cn(-c2ccc(-c3csc(Nc4ccc(N5CCOCC5)c(Cl)c4)n3)cc2)cn1` [Compound 225], the pEC50 was 5.30 to 5.96.

Regarding `c1cc2c(cc1Nc1nc(-c3ccc4c(c3)OCCO4)cs1)OCO2` [Compound 103], the pEC50 was 5.00 to 5.29.

As to `CCN(CC)c1ccc(Nc2nc(-c3ccc(-n4cnc(Br)c4)cc3)cs2)c(C)c1` [Compound 199], the pEC50 was 6.00 to 6.70.

Take `CN(C)CCNc1ccc(Nc2nc(-c3ccc(-n4ccnc4)cc3)cs2)c(C(F)(F)F)c1` [Compound 217]: the pEC50 is 5.30 to 5.96.

`Cc1cn(-c2ccc(-c3csc(Nc4cc(N5CCCCC5)ccc4C)n3)cn2)cn1` [Compound 283]: the pEC50 was over 6.70.

With `CCN(CC)CCN(C)c1ccc(Nc2nc(-c3ccc(-n4ccnc4)cc3)cs2)c(C(F)(F)F)c1` [Compound 219], the pEC50 was 5.30 to 5.96.

Regarding `CSc1ccccc1Nc1nc(-c2ccc(N3CCN(C)CC3)cc2)cs1` [Compound 196], the pEC50 was 5.00 to 5.29.

For the compound `COc1ccc(-c2csc(Nc3ccc(OC)c(OC)c3)n2)c(OC)c1` [Compound 101], the pEC50 is 5.30 to 5.96.

Turning to `CCCN(c1nc(-c2ccc(-n3ccnc3)cc2)cs1)c1ccc(N(CC)CC)cc1C` [Compound 175], the pEC50 is 4.52 to 5.00.

With `CCc1cn(-c2ccc(-c3csc(Nc4ccc(N(CC)CC)cc4C)n3)cc2)cn1` [Compound 272], the pEC50 was 6.00 to 6.70.

Consider `CCN(CCO)c1ccc(Nc2nc(-c3ccc(-n4cnc(C)c4)cc3C(F)(F)F)c(C)s2)c(C)c1` [Compound 206], for which the pEC50 was 5.00 to 5.29.

For `CN1CCN(c2ccc(-c3csc(Nc4ccc5c(c4)OCCO5)n3)cc2)CC1` [Compound 134], the pEC50 is 5.30 to 5.96.

`Cc1ccc(N2CCOCC2)cc1Nc1nc(-c2ccc(-n3ccnc3)cc2)cs1` [Compound 253]: the pEC50 was 6.00 to 6.70.

With `CSc1cccc(Nc2nc(-c3ccc4c(c3)OCO4)cs2)c1` [Compound 183], the pEC50 is 4.52 to 5.00.

`Cc1cc(C)c(Nc2nc(-c3ccc(-n4cnc(Br)c4)cc3)cs2)c(C)c1` [Compound 251]: the pEC50 was 5.30 to 5.96.

`CCN(CCOC)c1ccc(Nc2nc(-c3ccc(-n4ccnc4)cc3)cs2)c(C)c1` [Compound 230]: the pEC50 is 5.30 to 5.96.

For the compound `Cc1ccc(C)c(Nc2nc(-c3ccc(-n4cnc(C)c4)nc3)cs2)c1` [Compound 185], the pEC50 is over 6.70.

As to `CCN(CC)c1ccc(Nc2nc(-c3ccc(-c4c[nH]c(C)n4)cc3)cs2)c(C)c1` [Compound 248], the pEC50 is 5.00 to 5.29.

Consider `Cc1ccc(C)c(Nc2nc(-c3ccc(-n4ccnc4)cc3)cs2)c1` [Compound 302], for which the pEC50 was 6.00 to 6.70.

Take `Cc1cn(-c2ccc(-c3csc(Nc4ccc(N5CC(C)OC(C)C5)cc4)n3)cc2)cn1` (stereo not drawn) [Compound 260]: the pEC50 is 5.30 to 5.96.

For `COc1ccccc1-c1csc(Nc2ccc(Br)cc2)n1` [Compound 130], the pEC50 was 4.52 to 5.00.

For `Cc1ccc(C)c(Nc2nc(-c3ccc(-n4cnc(C)c4)cc3)cs2)c1` [Compound 303], the pEC50 is over 6.70.

Turning to `CCN(CC)c1ccc(Nc2nc(-c3ccc(-n4cnc(C)c4)nc3)cs2)c(C)c1` [Compound 247], the pEC50 was over 6.70.

Take `CN1CCN(c2ccc(-c3csc(Nc4ccc(OC(F)(F)F)c(Cl)c4)n3)cc2)CC1` [Compound 198]: the pEC50 was 5.30 to 5.96.

With `CN1CCN(c2ccc(-c3csc(Nc4ccc(Cl)c(Cl)c4)n3)cc2)CC1` [Compound 139], the pEC50 was 6.00 to 6.70.

Consider `CCCN(c1ccc(Cl)c(Cl)c1)c1nc(-c2ccc(-n3ccnc3)cc2)cs1` [Compound 174], for which the pEC50 was 4.52 to 5.00.

`CCN(CC)c1ccc(Nc2nc(-c3ccc(-n4ccnc4)cc3)cs2)c(C)c1` [Compound 133]: the pEC50 is 6.00 to 6.70.

For the compound `Cc1cn(-c2ncc(-c3csc(Nc4cc(C)c(C)cc4C)n3)cn2)cn1` [Compound 349], the pEC50 was over 6.70.

Take `COc1cc(Nc2nc(-c3ccc(-c4ccccn4)s3)cs2)cc(OC)c1OC` [Compound 106]: the pEC50 was 5.00 to 5.29.

Regarding `CN1CCN(c2ccc(-c3csc(Nc4ccc(Cl)c(Cl)c4)n3)cn2)CC1` [Compound 330], the pEC50 is 5.30 to 5.96.

On to `COc1ccc(Nc2nc(-c3ccc(-n4ccnc4)cc3)co2)cc1` [Compound 340], for which the pEC50 is 5.30 to 5.96.

With `Cc1cc(N2CCN(C)CC2)ccc1Nc1nc(-c2ccc(-n3ccnc3)cc2)cs1` [Compound 200], the pEC50 is 5.30 to 5.96.

As for `Oc1ccc(Nc2nc(-c3ccc4ccccc4c3)cs2)cc1` [Compound 124], the pEC50 is 5.00 to 5.29.

As for `Cc1ccc(NCC2CCN(C)CC2)cc1Nc1nc(-c2ccc(-n3ccnc3)cc2)cs1` [Compound 256], the pEC50 is 5.30 to 5.96.

As to `CN1CCN(c2ccc(-c3csc(Nc4ccc5c(c4)OCO5)n3)cc2)CC1` [Compound 115], the pEC50 was 5.30 to 5.96.

On to `Clc1cc(Cl)c(Nc2nc(-c3ccc(-n4ccnc4)cc3)cs2)c(Cl)c1` [Compound 213], for which the pEC50 was 5.30 to 5.96.

As to `c1cc(Nc2nc(-c3ccc4c(c3)OCO4)cs2)c2cn[nH]c2c1` [Compound 172], the pEC50 was 5.30 to 5.96.

Turning to `FC(F)(F)c1cc(N2CC=CC2)ccc1Nc1nc(-c2ccc(-n3ccnc3)cc2)cs1` [Compound 221], the pEC50 was 5.30 to 5.96.

Turning to `COc1ccc(-c2csc(Nc3ccc(Cl)cc3)n2)c(OC)c1` [Compound 150], the pEC50 was 5.30 to 5.96.

Take `CCN(CC)c1ccc(Nc2nc(-c3ccc(-n4ccnc4)cc3)cs2)c(C(F)(F)F)c1` [Compound 218]: the pEC50 was 5.30 to 5.96.

For `CSc1cccc(Nc2nc(-c3ccc(N(C)C)cc3)cs2)c1` [Compound 165], the pEC50 was 5.00 to 5.29.

As to `COc1ccc(-c2csc(Nc3ccc(C)c(Cl)c3)n2)c(OC)c1` [Compound 194], the pEC50 was 5.30 to 5.96.

Take `CN1CCN(C(=O)c2ccc(Nc3nc(-c4ccc(N5CCN(C)CC5)cc4)cs3)cc2)CC1` [Compound 191]: the pEC50 is 5.30 to 5.96.

`COc1cc(Nc2nc(-c3ccc(-c4ccccc4)s3)cs2)cc(OC)c1OC` [Compound 107]: the pEC50 was 4.52 to 5.00.

For `CCc1cccc(Nc2nc(-c3ccc(N4CCN(C)CC4)cc3)cs2)c1` [Compound 234], the pEC50 is 5.30 to 5.96.

As for `COc1ccc(-c2nc(Nc3cc(Cl)c(Cl)cc3Cl)sc2CC(=O)O)cc1` [Compound 187], the pEC50 was 5.30 to 5.96.

For `Cc1cn(-c2ccc(-c3csc(Nc4ccc(N5CCOCC5)c(Cl)c4)n3)c(C(F)(F)F)c2)cn1` [Compound 229], the pEC50 is 5.00 to 5.29.

Turning to `Oc1ccc(-c2csc(Nc3ccc4c(c3)OCO4)n2)cc1O` [Compound 111], the pEC50 is 5.30 to 5.96.

On to `Cc1ccc(C(C)C)cc1Nc1nc(-c2ccc(-n3ccnc3)nc2)cs1` [Compound 325], for which the pEC50 is 5.30 to 5.96.

For `CCN(CC)c1ccc(Nc2nc(-c3ccc(-n4cnc(C)c4)cc3OC)cs2)c(C)c1` [Compound 190], the pEC50 is 6.00 to 6.70.

Consider `CCCN(c1ccc2c(c1)OCO2)c1nc(-c2ccc(N3CCN(C)CC3)cc2)cs1` [Compound 163], for which the pEC50 was 5.00 to 5.29.

Consider `CCN(CC)c1ccc(Nc2nc(-c3ccc(-n4ccnc4)cc3)cs2)cc1` [Compound 177], for which the pEC50 is 5.30 to 5.96.

`Cc1ccc(N(C)CC2CC2)cc1Nc1nc(-c2ccc(-n3ccnc3)cc2)cs1` [Compound 304]: the pEC50 is over 6.70.

Regarding `CCN(CC)c1ccc(Nc2nc(-c3cnc(-n4cnc(C)c4)nc3)cs2)c(C)c1` [Compound 342], the pEC50 is over 6.70.

Take `COc1ccc(-c2csc(Nc3cccc(Cl)c3)n2)c(OC)c1` [Compound 153]: the pEC50 is 5.00 to 5.29.

As to `CN1CCN(c2ccc(-c3csc(Nc4cccc5cccnc45)n3)cc2)CC1` [Compound 128], the pEC50 was 5.30 to 5.96.

On to `Cc1cc(C)c(Nc2nc(-c3ccc(-n4cnc(Br)c4)cc3)cs2)cc1C` [Compound 236], for which the pEC50 was 6.00 to 6.70.

On to `CCc1ccc(C)nc1Nc1ccc(C)c(Nc2nc(-c3ccc(-n4ccnc4)cc3)cs2)c1` [Compound 257], for which the pEC50 is 5.00 to 5.29.
